Test results from ChEMBL document CHEMBL1147072, “Synthesis and evaluation of transthyretin amyloidosis inhibitors containing carborane pharmacophores” (Proc Natl Acad Sci U S A, 2007).

Experiments:
Transthyretin [1] = biological target: T1, Transthyretin (Homo sapiens, UniProt P02766); assay: Inhibition of human transthyretin assessed as amyloid fibril formation at pH 4.4 after 72 hrs relative to control; design: scale not given: the % may be the effect or the level left
Transthyretin [2] = biological target: T1, Transthyretin; assay: Inhibition of human transthyretin fibril formation at pH 4.4 after 72 hrs

`O=C(O)c1ccccc1Nc1cccc(C(F)(F)F)c1` [FLUFENAMIC ACID] gave an Activity (Transthyretin [1]) of 14% and an IC50 (Transthyretin [2]) of 2900 nM.
